Source: patent US5312622A, “Acaricidal compositions and process for preparing same” (Richter Gedeon Vegyeszeti Gyar Rt., priority 1992, dated 1994)

Assays:
Varroa jacobsoni = assay: Treatment of Varroa jacobsoni-infected bee families in hives, number of perished mites (Example 38); type: in vivo, Varroa jacobsoni mites on Apis mellifera
Experimental: Three families of bees, being present in good condition on nine frames, were infected with `Varroa jacobsoni` to a medium extent, then treated three times, on every third day with the cell-free fermentation broth prepared as described in Example 8 a). Each time, 60 ml of the cell-free fermentation broth prepared as described in Example 8 a) was evenly sprayed by using an airpump spraying device on the honeycomb surfaces and the bees swarming on such surfaces. In addition, each bee family was exposed to the effect of a smoking strip containing 30 mg of amitrase active agent (ANTIVAR for veterinary use) on the third day after the last treatment.
Three other bee families used as control were treated only with ANTIVAR (30 mg of amitrase) in the periods of treatments by the fermentation broth prepared in Example 8 a). Then the number of perished mites and bees inside the hive was counted and registered. Also, the general condition and behavior of the families and the queen-bee were observed.
A tray made of aluminum and provided with a 5 mm high folded rim was placed on the floor-plate of the bee-hives. In case of necessity, the tray could be removed or replaced through an appropriately shaped opening made in the plane of the floor-plate, without the need to open the bee-hive itself.
Under the term of "inhabited strip of the honeycomb" we mean the area stretching between two adjacent sections of the honeycomb was meant where at least 70 to 80% of opposite surfaces of the honeycomb were covered by bees.
By each treatment, 60 ml of cell-free undiluted fermentation broth, prepared as described in Example 8a) and kept at room temperature, were sprayed by using a manually operated air-jet device onto the entire surface of nine frames holding three families of bees (i.e. onto a surface of 27 216 cm^2 per family). The bees covered the honeycomb surface quite evenly during the spraying. The smoking strip containing the amitrase active agent (ANTIVAR) used as control was bent in a "V"-form and placed onto the aluminum tray, then lit and pushed inside the bee-hive. The exit opening was kept closed for one hour.
a) The number of perished mites was registered in the 24th, 48th and 72nd hour after treatments.
Number of perished Varroa jacobsoni mites each per bee family after treatments carried out every 3rd day, 3 times altogether by using the cell-free fermentation broth prepared as described in Example 8a) followed by a treatment with amitrase
Number of perished "Varroa jacobsoni" mites each per bee family after treatment in every third day, 4 times altogether by using 30 mg of amitrase per treatment (control)

Apis mellifera = conditions: bee; comparison value, no test described; cited from earlier work

Question: With `Cc1ccc(N=CN(C)C=Nc2ccc(C)cc2C)c(C)c1` [amitrase] as the compound, how does the effect (Varroa jacobsoni; amitrase-treating, as shown in example 38) read?
Answer: < 100%

Question: What about the “Number of perished mites” value (Varroa jacobsoni; control group, 4th amitrase treatment (30 mg), 24 h after treatment, bee family No. 1) of the same compound?
Answer: 57

Question: What about the “Number of perished mites” value (Varroa jacobsoni; control group, 4th amitrase treatment (30 mg), 24 h after treatment, bee family No. 2) of the same compound?
Answer: 55

Question: What about the “Number of perished mites” value (Varroa jacobsoni; control group, 4th amitrase treatment (30 mg), 24 h after treatment, bee family No. 3) of the same compound?
Answer: 32

Question: What about the “Number of perished mites” value (Varroa jacobsoni; control group, 4th amitrase treatment (30 mg), 48 h after treatment, bee family No. 1) of the same compound?
Answer: 4

Question: And the “Number of perished mites” value (Varroa jacobsoni; control group, 4th amitrase treatment (30 mg), 48 h after treatment, bee family No. 2)?
Answer: 0

Question: And the “Number of perished mites” value (Varroa jacobsoni; control group, 4th amitrase treatment (30 mg), 48 h after treatment, bee family No. 3)?
Answer: 4

Question: And the “Number of perished mites” value (Varroa jacobsoni; control group, 4th amitrase treatment (30 mg), 72 h after treatment, bee family No. 1)?
Answer: 1

Question: And the “Number of perished mites” value (Varroa jacobsoni; control group, 4th amitrase treatment (30 mg), 72 h after treatment, bee family No. 2)?
Answer: 0

Question: And the “Number of perished mites” value (Varroa jacobsoni; control group, 4th amitrase treatment (30 mg), 72 h after treatment, bee family No. 3)?
Answer: 1

Question: And the “Number of perished mites, Total” value (Varroa jacobsoni; control group, 4th amitrase treatment (30 mg), total, bee family No. 1)?
Answer: 62

Question: What about the “Number of perished mites, Total” value (Varroa jacobsoni; control group, 4th amitrase treatment (30 mg), total, bee family No. 2) of the same compound?
Answer: 55

Question: What about the “Number of perished mites, Total” value (Varroa jacobsoni; control group, 4th amitrase treatment (30 mg), total, bee family No. 3) of the same compound?
Answer: 37

Question: What about the “Number of perished mites” value (Varroa jacobsoni; treatment 1, 24 h after treatment, bee family No. 1) of the same compound?
Answer: 164

Question: And the “Number of perished mites” value (Varroa jacobsoni; treatment 1, 24 h after treatment, bee family No. 2)?
Answer: 241

Question: And the “Number of perished mites” value (Varroa jacobsoni; treatment 1, 24 h after treatment, bee family No. 3)?
Answer: 190

Question: And the “Number of perished mites” value (Varroa jacobsoni; treatment 1, 48 h after treatment, bee family No. 1)?
Answer: 3

Question: And the “Number of perished mites” value (Varroa jacobsoni; treatment 1, 48 h after treatment, bee family No. 2)?
Answer: 12

Question: And the “Number of perished mites” value (Varroa jacobsoni; treatment 1, 48 h after treatment, bee family No. 3)?
Answer: 3

Question: What about the “Number of perished mites” value (Varroa jacobsoni; treatment 1, 72 h after treatment, bee family No. 1) of the same compound?
Answer: 0

Question: And the “Number of perished mites” value (Varroa jacobsoni; treatment 1, 72 h after treatment, bee family No. 2)?
Answer: 1

Question: And the “Number of perished mites” value (Varroa jacobsoni; treatment 1, 72 h after treatment, bee family No. 3)?
Answer: 0

Question: And the “Number of perished mites, Total” value (Varroa jacobsoni; treatment 1, total, bee family No. 1)?
Answer: 167

Question: And the “Number of perished mites, Total” value (Varroa jacobsoni; treatment 1, total, bee family No. 2)?
Answer: 254

Question: And the “Number of perished mites, Total” value (Varroa jacobsoni; treatment 1, total, bee family No. 3)?
Answer: 193

Question: What about the “Number of perished mites” value (Varroa jacobsoni; treatment 2, 24 h after treatment, bee family No. 1) of the same compound?
Answer: 68

Question: What about the “Number of perished mites” value (Varroa jacobsoni; treatment 2, 24 h after treatment, bee family No. 2) of the same compound?
Answer: 87

Question: What about the “Number of perished mites” value (Varroa jacobsoni; treatment 2, 24 h after treatment, bee family No. 3) of the same compound?
Answer: 37

Question: What about the “Number of perished mites” value (Varroa jacobsoni; treatment 2, 48 h after treatment, bee family No. 1) of the same compound?
Answer: 0

Question: What about the “Number of perished mites” value (Varroa jacobsoni; treatment 2, 48 h after treatment, bee family No. 2) of the same compound?
Answer: 3

Question: And the “Number of perished mites” value (Varroa jacobsoni; treatment 2, 48 h after treatment, bee family No. 3)?
Answer: 1

Question: What about the “Number of perished mites” value (Varroa jacobsoni; treatment 2, 72 h after treatment, bee family No. 1) of the same compound?
Answer: 0

Question: What about the “Number of perished mites” value (Varroa jacobsoni; treatment 2, 72 h after treatment, bee family No. 2) of the same compound?
Answer: 1

Question: And the “Number of perished mites” value (Varroa jacobsoni; treatment 2, 72 h after treatment, bee family No. 3)?
Answer: 0

Question: What about the “Number of perished mites, Total” value (Varroa jacobsoni; treatment 2, total, bee family No. 1) of the same compound?
Answer: 68

Question: And the “Number of perished mites, Total” value (Varroa jacobsoni; treatment 2, total, bee family No. 2)?
Answer: 91

Question: What about the “Number of perished mites, Total” value (Varroa jacobsoni; treatment 2, total, bee family No. 3) of the same compound?
Answer: 38

Question: What about the “Number of perished mites” value (Varroa jacobsoni; treatment 3, 24 h after treatment, bee family No. 1) of the same compound?
Answer: 21

Question: And the “Number of perished mites” value (Varroa jacobsoni; treatment 3, 24 h after treatment, bee family No. 2)?
Answer: 35

Question: What about the “Number of perished mites” value (Varroa jacobsoni; treatment 3, 24 h after treatment, bee family No. 3) of the same compound?
Answer: 24

Question: What about the “Number of perished mites” value (Varroa jacobsoni; treatment 3, 48 h after treatment, bee family No. 1) of the same compound?
Answer: 0

Question: What about the “Number of perished mites” value (Varroa jacobsoni; treatment 3, 48 h after treatment, bee family No. 2) of the same compound?
Answer: 2

Question: And the “Number of perished mites” value (Varroa jacobsoni; treatment 3, 48 h after treatment, bee family No. 3)?
Answer: 1

Question: What about the “Number of perished mites” value (Varroa jacobsoni; treatment 3, 72 h after treatment, bee family No. 1) of the same compound?
Answer: 0

Question: And the “Number of perished mites” value (Varroa jacobsoni; treatment 3, 72 h after treatment, bee family No. 2)?
Answer: 0

Question: And the “Number of perished mites” value (Varroa jacobsoni; treatment 3, 72 h after treatment, bee family No. 3)?
Answer: 2

Question: And the “Number of perished mites, Total” value (Varroa jacobsoni; treatment 3, total, bee family No. 1)?
Answer: 21

Question: What about the “Number of perished mites, Total” value (Varroa jacobsoni; treatment 3, total, bee family No. 2) of the same compound?
Answer: 37

Question: What about the “Number of perished mites, Total” value (Varroa jacobsoni; treatment 3, total, bee family No. 3) of the same compound?
Answer: 27

Question: What about the “Number of perished mites” value (Varroa jacobsoni; treatment 4: amitrase (30 mg) after 3 treatments with Example 8a) broth, 24 h, bee family No. 1) of the same compound?
Answer: 225

Question: What about the “Number of perished mites” value (Varroa jacobsoni; treatment 4: amitrase (30 mg) after 3 treatments with Example 8a) broth, 24 h, bee family No. 2) of the same compound?
Answer: 134

Question: What about the “Number of perished mites” value (Varroa jacobsoni; treatment 4: amitrase (30 mg) after 3 treatments with Example 8a) broth, 24 h, bee family No. 3) of the same compound?
Answer: 94

Question: And the “Number of perished mites” value (Varroa jacobsoni; treatment 4: amitrase (30 mg) after 3 treatments with Example 8a) broth, 48 h, bee family No. 1)?
Answer: 24

Question: And the “Number of perished mites” value (Varroa jacobsoni; treatment 4: amitrase (30 mg) after 3 treatments with Example 8a) broth, 48 h, bee family No. 2)?
Answer: 4

Question: What about the “Number of perished mites” value (Varroa jacobsoni; treatment 4: amitrase (30 mg) after 3 treatments with Example 8a) broth, 48 h, bee family No. 3) of the same compound?
Answer: 11

Question: And the “Number of perished mites” value (Varroa jacobsoni; treatment 4: amitrase (30 mg) after 3 treatments with Example 8a) broth, 72 h, bee family No. 1)?
Answer: 0

Question: What about the “Number of perished mites” value (Varroa jacobsoni; treatment 4: amitrase (30 mg) after 3 treatments with Example 8a) broth, 72 h, bee family No. 2) of the same compound?
Answer: 1

Question: And the “Number of perished mites” value (Varroa jacobsoni; treatment 4: amitrase (30 mg) after 3 treatments with Example 8a) broth, 72 h, bee family No. 3)?
Answer: 0

Question: What about the “Number of perished mites, Total” value (Varroa jacobsoni; treatment 4: amitrase (30 mg) after 3 treatments with Example 8a) broth, total, bee family No. 1) of the same compound?
Answer: 249

Question: What about the “Number of perished mites, Total” value (Varroa jacobsoni; treatment 4: amitrase (30 mg) after 3 treatments with Example 8a) broth, total, bee family No. 2) of the same compound?
Answer: 139

Question: And the “Number of perished mites, Total” value (Varroa jacobsoni; treatment 4: amitrase (30 mg) after 3 treatments with Example 8a) broth, total, bee family No. 3)?
Answer: 105

Question: What about the LD50 (Apis mellifera) of the same compound?
Answer: 12 microgram/bee
